Reference: US7250442B2, “Dihydroindol-2-one derivatives as steroid hormone nuclear receptor modulators” (Eli Lilly and Company, priority 2003, dated 2007)

biological target: T1, human MR (Homo sapiens, UniProt P08235); assay: Mineralocorticoid Receptor Binding Assay ([3H]-aldosterone displacement); conditions: full length human MR expressed in Sf9 cells, 0.5 nM [3H]-aldosterone
T1 construct: The full length human MR gene is cloned from a human kidney or human brain cDNA library; made in house; host or cells: Sf9 insect cells (baculovirus, pAcHLT transfer vector)
T1 sequence (P08235 1-984): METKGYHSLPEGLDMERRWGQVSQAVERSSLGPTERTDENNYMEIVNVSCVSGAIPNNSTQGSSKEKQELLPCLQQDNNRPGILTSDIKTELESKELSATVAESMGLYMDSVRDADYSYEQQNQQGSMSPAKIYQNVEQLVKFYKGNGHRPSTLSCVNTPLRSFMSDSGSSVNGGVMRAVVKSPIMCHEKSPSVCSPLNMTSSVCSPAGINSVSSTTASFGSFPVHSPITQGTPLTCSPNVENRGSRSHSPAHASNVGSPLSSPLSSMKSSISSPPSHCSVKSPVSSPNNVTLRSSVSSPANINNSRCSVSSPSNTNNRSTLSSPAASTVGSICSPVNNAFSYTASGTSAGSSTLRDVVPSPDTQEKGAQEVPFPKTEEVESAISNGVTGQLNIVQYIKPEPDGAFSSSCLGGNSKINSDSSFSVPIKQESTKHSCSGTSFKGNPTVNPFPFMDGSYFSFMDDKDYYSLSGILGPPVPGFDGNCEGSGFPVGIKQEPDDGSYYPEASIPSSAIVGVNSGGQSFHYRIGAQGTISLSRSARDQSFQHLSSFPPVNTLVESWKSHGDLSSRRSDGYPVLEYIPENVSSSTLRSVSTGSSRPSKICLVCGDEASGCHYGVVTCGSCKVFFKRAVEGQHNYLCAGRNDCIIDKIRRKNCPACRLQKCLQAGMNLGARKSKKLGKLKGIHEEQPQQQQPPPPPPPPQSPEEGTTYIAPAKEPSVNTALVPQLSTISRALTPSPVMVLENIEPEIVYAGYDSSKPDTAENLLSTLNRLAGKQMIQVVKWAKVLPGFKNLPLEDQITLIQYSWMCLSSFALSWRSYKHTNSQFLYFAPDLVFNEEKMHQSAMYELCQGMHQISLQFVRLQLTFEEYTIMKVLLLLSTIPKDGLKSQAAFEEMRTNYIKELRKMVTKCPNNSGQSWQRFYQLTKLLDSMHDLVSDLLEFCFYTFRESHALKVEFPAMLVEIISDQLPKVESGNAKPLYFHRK
In short: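 Full-length human MR expressed in Sf9 cells; lysate (20-25 μg protein) incubated with 0.5 nM [3H]-aldosterone and test compound in molybdate/Tris/phosphate/glycerol buffer pH 7.5, 16 h at 4 °C. Bound ligand measured by filtration and scintillation counting; IC50 converted to Ki via Cheng-Prusoff.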

Ki, ≤ 500 nM:
Cc1cc(C2(c3cc(C)c(O)c(C)c3)C(=O)N(Cc3cc(C(F)(F)F)ccc3F)c3ccccc32)cc(C)c1O [Example 112, 1-(2-Fluoro-5-trifluoromethyl-benzyl)-3,3-bis-(4-hydroxy-3,5-dimethyl-phenyl)-1,3-dihydro-indol-2-one]
COc1ccc(OC)c(C(=O)CN2C(=O)C(c3cc(C)c(O)c(C)c3)(c3cc(C)c(O)c(C)c3)c3ccccc32)c1 [Example 49, 1-[2-(2,5-Dimethoxy-phenyl)-2-oxo-ethyl]-3,3-bis-(4-hydroxy-3,5-dimethyl-phenyl)-1,3-dihydro-indol-2-one]
Cc1cc(C2(c3cc(C)c(O)c(C)c3)C(=O)N(Cc3ccc(Br)cc3F)c3ccccc32)cc(C)c1O [Example 81, 1-(4-Bromo-2-fluoro-benzyl)-3,3-bis-(4-hydroxy-3,5-dimethyl-phenyl)-1,3-dihydro-indol-2-one]
COc1ccc(N2C(=O)C(c3cc(C)c(O)c(C)c3)(c3cc(C)c(O)c(C)c3)c3ccccc32)cc1 [Example 128, 3,3-Bis-(4-hydroxy-3,5-dimethyl-phenyl)-1-(4-methoxy-phenyl)-1,3-dihydro-indol-2-one]
Cc1cc(C2(c3cc(C)c(O)c(C)c3)C(=O)N(C3CCCC3)c3ccccc32)cc(C)c1O [Example 114, 1-Cyclopentyl-3,3-bis-(4-hydroxy-3,5-dimethyl-phenyl)-1,3-dihydro-indol-2-one]
Cc1cc(C2(c3cc(C)c(O)c(C)c3)C(=O)N(Cc3ccc(N)cc3)c3ccccc32)cc(C)c1O [Example 117, 11-(4-Amino-benzyl)-3,3-bis-(4-hydroxy-3,5-dimethyl-phenyl)-1,3-dihydro-indol-2-one]
Cc1cc(C2(c3ccc(O)cc3)C(=O)N(Cc3ccccc3)c3ccccc32)cc(C)c1O (centres unmarked) [Example 29, 1-Benzyl-3-(4-hydroxy-3,5-dimethyl-phenyl)-3-(4-hydroxy-phenyl)-1,3-dihydro-indol-2-one]
Cc1cc(C2(c3cc(C)c(O)c(C)c3)C(=O)N(Cc3cccc4ccccc34)c3ccccc32)cc(C)c1O [Example 10, 3,3-Bis-(4-hydroxy-3,5-dimethyl-phenyl)-1-naphthalen-1-ylmethyl-1,3-dihydro-indol-2-one]
COc1ccc(C(=O)CN2C(=O)C(c3cc(C)c(O)c(C)c3)(c3cc(C)c(O)c(C)c3)c3ccccc32)cc1 [Example 46, 3,3-Bis-(4-hydroxy-3,5-dimethyl-phenyl)-1-[2-(4-methoxy-phenyl)-2-oxo-ethyl]-1,3-dihydro-indol-2-one]
Cc1cc(C2(c3cc(C)c(O)c(C)c3)C(=O)N(c3cccc(Br)c3)c3ccccc32)cc(C)c1O [Example 139, 1-(3-Bromo-phenyl)-3,3-bis-(4-hydroxy-3,5-dimethyl-phenyl)-1,3-dihydro-indol-2-one]
Cc1ccc2c(c1)C(c1cc(C)c(O)c(C)c1)(c1cc(C)c(O)c(C)c1)C(=O)N2Cc1csc(C)n1 [Example 93, 3,3-Bis-(4-hydroxy-3,5-dimethyl-phenyl)-5-methyl-1-(2-methyl-thiazol-4-ylmethyl)-1,3-dihydro-indol-2-one]
Cc1cc(C2(c3cc(C)c(O)c(C)c3)C(=O)N(Cc3ccccc3C#N)c3ccccc32)cc(C)c1O [Example 51, 2-[3,3-Bis-(4-hydroxy-3,5-dimethyl-phenyl)-2-oxo-2,3-dihydro-indol-1-ylmethyl]-benzonitrile]
Cc1cc(C2(c3cc(C)c(O)c(C)c3)C(=O)N(Cc3ccc(C(F)(F)F)cc3)c3ccccc32)cc(C)c1O [Example 57, 3,3-Bis-(4-hydroxy-3,5-dimethyl-phenyl)-1-(4-trifluoromethyl-benzyl)-1,3-dihydro-indol-2-one]
Cc1cc(C2(c3cc(C)c(O)c(C)c3)C(=O)N(Cc3ccc(F)cc3)c3ccccc32)cc(C)c1O [Example 2]
COC(=O)c1cccc(CN2C(=O)C(c3cc(C)c(O)c(C)c3)(c3cc(C)c(O)c(C)c3)c3ccccc32)c1 [Example 55, 3-[3,3-Bis-(4-hydroxy-3,5-dimethyl-phenyl)-2-oxo-2,3-dihydro-indol-1-ylmethyl]-benzoic acid methyl ester]
Cc1cc(C2(c3cc(C)c(O)c(C)c3)C(=O)N(Cc3ccc(O)cc3)c3ccccc32)cc(C)c1O [Example 88, 1-(4-Hydroxy-benzyl)-3,3-bis-(4-hydroxy-3,5-dimethyl-phenyl)-1,3-dihydro-indol-2-one]
COc1cccc(C(=O)CN2C(=O)C(c3cc(C)c(O)c(C)c3)(c3cc(C)c(O)c(C)c3)c3ccccc32)c1 [Example 45, 3,3-Bis-(4-hydroxy-3,5-dimethyl-phenyl)-1-[2-(3-methoxy-phenyl)-2-oxo-ethyl]-1,3-dihydro-indol-2-one]
Cc1cc(C2(c3cc(C)c(O)c(C)c3)C(=O)N(CC3CC3)c3ccccc32)cc(C)c1O [Example 105, 1-Cyclopropylmethyl-3,3-bis-(4-hydroxy-3,5-dimethyl-phenyl)-1,3-dihydro-indol-2-one]
Cc1cc(C2(c3cc(C)c(O)c(C)c3)C(=O)N(Cc3ccccn3)c3ccccc32)cc(C)c1O [Example 100, 3,3-Bis-(4-hydroxy-3,5-dimethyl-phenyl)-1-pyridin-2-ylmethyl-1,3-dihydro-indol-2-one]
Cc1cc(C2(c3cc(C)c(O)c(C)c3)C(=O)N(Cc3c(C)cccc3C)c3ccccc32)cc(C)c1O [Example 107, 1-(2,6-Dimethyl-benzyl)-3,3-bis-(4-hydroxy-3,5-dimethyl-phenyl)-1,3-dihydro-indol-2-one]
Cc1nc(CN2C(=O)C(c3cc(C)c(O)c(C)c3)(c3cc(C)c(O)c(C)c3)c3ccccc32)cs1 [Example 89, 3,3-Bis-(4-hydroxy-3,5-dimethyl-phenyl)-1-(2-methyl-thiazol-4-ylmethyl)-1,3-dihydro-indol-2-one]
Cc1cc(C2(c3cc(C)c(O)c(C)c3)C(=O)N(Cc3cccc(C(F)(F)F)c3)c3ccccc32)cc(C)c1O [Example 61, 3,3-Bis-(4-hydroxy-3,5-dimethyl-phenyl)-1-(3-trifluoromethyl-benzyl)-1,3-dihydro-indol-2-one]
Cc1cc(C2(c3cc(C)c(O)c(C)c3)C(=O)N(Cc3ccc(C(C)(C)C)cc3)c3ccccc32)cc(C)c1O [Example 7, 1-(4-tert-Butyl-benzyl)-3,3-bis-(4-hydroxy-3,5-dimethyl-phenyl)-1,3-dihydro-indol-2-one]
Cc1cc(C2(c3cc(C)c(O)c(C)c3)C(=O)N(c3cccnc3)c3ccccc32)cc(C)c1O [Example 135, 3,3-Bis-(4-hydroxy-3,5-dimethyl-phenyl)-1-pyridin-3-yl-1,3-dihydro-indol-2-one]
Cc1cc(C2(c3cc(C)c(O)c(C)c3)C(=O)N(Cc3cccc(N)c3)c3ccccc32)cc(C)c1O [Example 118, 1-(3-Amino-benzyl)-3,3-bis-(4-hydroxy-3,5-dimethyl-phenyl)-1,3-dihydro-indol-2-one]
COc1ccc2c(c1)C(c1cc(C)c(O)c(C)c1)(c1cc(C)c(O)c(C)c1)C(=O)N2Cc1ccccc1 [Example 16, 1-Benzyl-3,3-bis-(4-hydroxy-3,5-dimethyl-phenyl)-5-methoxy-1,3-dihydro-indol-2-one]
Cc1cc(C2(c3cc(C)c(O)c(C)c3)C(=O)N(Cc3cccc(Cl)c3)c3ccccc32)cc(C)c1O [Example 60, 1-(3-Chloro-benzyl)-3,3-bis-(4-hydroxy-3,5-dimethyl-phenyl)-1,3-dihydro-indol-2-one]
COc1cccc(N2C(=O)C(c3cc(C)c(O)c(C)c3)(c3cc(C)c(O)c(C)c3)c3ccccc32)c1 [Example 134, 3,3-Bis-(4-hydroxy-3,5-dimethyl-phenyl)-1-(3-methoxy-phenyl)-1,3-dihydro-indol-2-one]
Cc1cc(C2(c3cc(C)c(O)c(C)c3)C(=O)N(CCc3scnc3C)c3ccccc32)cc(C)c1O [Example 121, 3,3-Bis-(4-hydroxy-3,5-dimethyl-phenyl)-1-[2-(4-methyl-thiazol-5-yl)-ethyl]-1,3-dihydro-indol-2-one]
